Source: the Kinase Knowledgebase extract (Sharma et al. 2016)

Legend:
EGFR (human) = EGFR (human) (UniProt P00533); test: Enzyme Assay
[1] = biological target: EGFR (human), P00533 [L861Q]; test: Enzyme Assay
[2] = biological target: EGFR (human), P00533 [L858R]; test: Enzyme Assay
[3] = biological target: EGFR (human), P00533 [L858R]; test: Cell-Based Assay; settings: ba/f3

Chain of EGFR (human), P00533 [L858R] (P00533 whole entry L858R, looked up): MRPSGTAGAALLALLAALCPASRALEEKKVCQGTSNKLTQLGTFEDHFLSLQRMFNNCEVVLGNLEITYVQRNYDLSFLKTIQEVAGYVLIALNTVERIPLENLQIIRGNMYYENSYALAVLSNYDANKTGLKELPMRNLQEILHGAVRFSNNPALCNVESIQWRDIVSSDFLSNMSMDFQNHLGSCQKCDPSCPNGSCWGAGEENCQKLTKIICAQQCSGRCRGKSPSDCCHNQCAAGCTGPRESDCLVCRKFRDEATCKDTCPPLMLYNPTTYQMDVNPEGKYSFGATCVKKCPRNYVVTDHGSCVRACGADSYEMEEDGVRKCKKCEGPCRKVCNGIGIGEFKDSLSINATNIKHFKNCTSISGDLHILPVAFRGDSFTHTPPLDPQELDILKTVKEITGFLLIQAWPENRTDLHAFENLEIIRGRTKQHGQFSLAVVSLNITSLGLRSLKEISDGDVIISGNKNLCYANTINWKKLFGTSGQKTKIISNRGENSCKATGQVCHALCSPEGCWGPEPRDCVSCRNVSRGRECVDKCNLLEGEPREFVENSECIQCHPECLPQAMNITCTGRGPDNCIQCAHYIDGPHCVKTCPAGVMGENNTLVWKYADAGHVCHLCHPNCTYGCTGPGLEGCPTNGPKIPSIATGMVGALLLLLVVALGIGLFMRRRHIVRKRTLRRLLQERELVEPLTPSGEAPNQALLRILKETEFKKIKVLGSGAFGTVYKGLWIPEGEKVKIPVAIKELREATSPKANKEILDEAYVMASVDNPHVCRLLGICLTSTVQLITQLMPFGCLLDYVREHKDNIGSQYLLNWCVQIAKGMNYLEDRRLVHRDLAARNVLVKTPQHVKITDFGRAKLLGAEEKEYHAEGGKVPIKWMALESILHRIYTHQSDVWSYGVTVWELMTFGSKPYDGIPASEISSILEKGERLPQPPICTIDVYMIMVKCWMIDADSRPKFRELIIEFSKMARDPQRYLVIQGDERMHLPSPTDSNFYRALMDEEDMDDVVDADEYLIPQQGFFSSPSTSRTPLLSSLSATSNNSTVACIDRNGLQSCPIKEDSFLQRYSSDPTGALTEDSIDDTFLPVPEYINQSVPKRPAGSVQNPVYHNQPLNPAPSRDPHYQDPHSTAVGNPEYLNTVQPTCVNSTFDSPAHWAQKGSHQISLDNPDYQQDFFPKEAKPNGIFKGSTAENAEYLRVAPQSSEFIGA
Chain of EGFR (human), P00533 [L861Q] (P00533 whole entry L861Q, looked up): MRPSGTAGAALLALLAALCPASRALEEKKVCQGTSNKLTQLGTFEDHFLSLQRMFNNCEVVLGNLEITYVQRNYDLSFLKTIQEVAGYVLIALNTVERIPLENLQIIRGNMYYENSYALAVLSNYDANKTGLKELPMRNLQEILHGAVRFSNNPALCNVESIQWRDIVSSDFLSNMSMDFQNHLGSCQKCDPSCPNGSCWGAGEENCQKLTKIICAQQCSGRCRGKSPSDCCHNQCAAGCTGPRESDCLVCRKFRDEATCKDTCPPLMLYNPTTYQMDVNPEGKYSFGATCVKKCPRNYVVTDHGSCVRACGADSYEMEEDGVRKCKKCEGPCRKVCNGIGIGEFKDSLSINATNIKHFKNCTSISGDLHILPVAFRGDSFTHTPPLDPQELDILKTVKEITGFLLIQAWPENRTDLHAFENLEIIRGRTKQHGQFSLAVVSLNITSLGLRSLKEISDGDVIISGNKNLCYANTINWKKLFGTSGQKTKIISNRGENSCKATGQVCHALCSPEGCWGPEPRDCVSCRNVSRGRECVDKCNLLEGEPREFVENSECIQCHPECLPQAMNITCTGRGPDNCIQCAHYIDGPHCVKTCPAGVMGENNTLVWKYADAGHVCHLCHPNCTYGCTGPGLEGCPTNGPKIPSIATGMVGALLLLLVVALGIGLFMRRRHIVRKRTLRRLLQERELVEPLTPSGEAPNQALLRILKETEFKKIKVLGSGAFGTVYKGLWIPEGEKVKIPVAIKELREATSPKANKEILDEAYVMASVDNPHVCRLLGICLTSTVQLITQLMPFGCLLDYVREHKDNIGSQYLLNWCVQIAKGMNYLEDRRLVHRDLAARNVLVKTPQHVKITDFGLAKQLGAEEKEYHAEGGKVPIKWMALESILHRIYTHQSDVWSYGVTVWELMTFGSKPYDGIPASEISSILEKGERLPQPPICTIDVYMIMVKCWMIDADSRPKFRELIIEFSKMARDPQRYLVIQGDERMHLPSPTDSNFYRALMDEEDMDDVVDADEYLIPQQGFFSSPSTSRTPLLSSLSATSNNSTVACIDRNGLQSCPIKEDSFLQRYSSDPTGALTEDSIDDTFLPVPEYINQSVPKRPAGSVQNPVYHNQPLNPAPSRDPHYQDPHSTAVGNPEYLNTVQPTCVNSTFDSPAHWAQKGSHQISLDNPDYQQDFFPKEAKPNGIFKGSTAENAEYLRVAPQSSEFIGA
Chain of EGFR (human) (P00533 whole entry, looked up): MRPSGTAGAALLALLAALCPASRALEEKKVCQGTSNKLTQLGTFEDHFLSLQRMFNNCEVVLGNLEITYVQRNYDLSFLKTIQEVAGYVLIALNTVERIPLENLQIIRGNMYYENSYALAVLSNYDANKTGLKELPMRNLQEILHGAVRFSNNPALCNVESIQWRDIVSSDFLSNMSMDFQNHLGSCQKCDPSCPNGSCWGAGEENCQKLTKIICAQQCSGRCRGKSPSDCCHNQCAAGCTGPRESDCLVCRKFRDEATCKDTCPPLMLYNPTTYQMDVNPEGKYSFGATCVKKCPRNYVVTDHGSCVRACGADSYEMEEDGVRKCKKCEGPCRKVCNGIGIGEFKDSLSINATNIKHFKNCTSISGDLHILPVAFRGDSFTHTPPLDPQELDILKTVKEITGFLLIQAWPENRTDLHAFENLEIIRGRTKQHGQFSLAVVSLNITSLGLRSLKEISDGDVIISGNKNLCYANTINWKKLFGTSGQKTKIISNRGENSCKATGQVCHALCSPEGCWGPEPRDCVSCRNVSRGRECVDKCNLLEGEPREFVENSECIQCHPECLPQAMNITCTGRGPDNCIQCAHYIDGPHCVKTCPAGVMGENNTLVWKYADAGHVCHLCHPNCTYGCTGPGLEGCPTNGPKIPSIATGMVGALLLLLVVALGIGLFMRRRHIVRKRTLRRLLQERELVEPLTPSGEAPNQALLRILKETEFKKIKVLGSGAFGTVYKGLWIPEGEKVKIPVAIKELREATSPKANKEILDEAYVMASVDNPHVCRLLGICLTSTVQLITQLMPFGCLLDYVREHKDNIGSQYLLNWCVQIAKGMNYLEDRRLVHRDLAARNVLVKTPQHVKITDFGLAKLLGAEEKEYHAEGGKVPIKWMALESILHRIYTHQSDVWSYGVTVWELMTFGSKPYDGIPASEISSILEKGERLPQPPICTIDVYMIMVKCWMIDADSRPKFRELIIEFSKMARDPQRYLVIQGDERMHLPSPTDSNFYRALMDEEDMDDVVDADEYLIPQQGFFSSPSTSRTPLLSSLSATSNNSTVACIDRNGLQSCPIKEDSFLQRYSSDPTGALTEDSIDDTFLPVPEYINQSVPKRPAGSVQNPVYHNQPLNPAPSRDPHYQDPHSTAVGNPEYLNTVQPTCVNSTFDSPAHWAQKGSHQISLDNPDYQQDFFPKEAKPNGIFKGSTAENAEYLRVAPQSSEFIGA

| SMILES | IC50 (EGFR (human)) [nM] | IC50 [1] [nM] | IC50 [2] [nM] | IC50 [3] [nM] |
| --- | --- | --- | --- | --- |
| C[C@@H](Nc1ncnc2sc(-c3ccc(CO)cc3)cc12)c1ccccc1 | 6.6 | – | – | – |
| COc1cc(C=O)ccc1-c1cc2c(N[C@H](C)c3ccccc3)ncnc2s1 | 3 | 3.9 | 4.3 | – |
| C[C@@H](Nc1ncnc2sc(-c3ccc(O)cc3)cc12)c1ccccc1 | 84 | – | – | – |
| Cc1ccc(-c2cc3c(N[C@H](C)c4ccccc4)ncnc3s2)cc1 | 105 | – | – | – |
| COc1ccc(-c2cc3c(N[C@H](C)c4ccccc4)ncnc3s2)c(OC)c1 | 5 | – | – | – |
| COc1cc(C=O)ccc1-c1cc2c(Nc3ccccc3)ncnc2s1 | 20 | – | – | – |
| COc1cc(F)ccc1-c1cc2c(N[C@H](C)c3ccccc3)ncnc2s1 | 6.3 | – | – | – |
| C[C@@H](Nc1ncnc2sc(-c3cccc(O)c3)cc12)c1ccccc1 | 45 | – | – | – |
| C[C@@H](Nc1ncnc2sc(-c3ccccc3O)cc12)c1ccccc1 | 35 | – | – | – |
| COc1cc(CO)ccc1-c1cc2c(NCc3ccccc3)ncnc2s1 | 4.8 | – | – | – |
| COc1ccccc1-c1cc2c(N[C@H](C)c3ccccc3)ncnc2s1 | 6.7 | 9.06 | 7.71 | – |
| COc1cccc(-c2cc3c(N[C@H](C)c4ccccc4)ncnc3s2)c1 | 37 | – | – | – |
| C[C@@H](Nc1ncnc2sc(-c3ccccc3CO)cc12)c1ccccc1 | 38 | – | – | – |
| Cc1cccc(-c2cc3c(N[C@H](C)c4ccccc4)ncnc3s2)c1 | 77 | – | – | – |
| COc1ccc(-c2cc3c(N[C@H](C)c4ccccc4)ncnc3s2)cc1 | 54 | – | – | – |
| CC[C@@H](Nc1ncnc2sc(-c3ccccc3O)cc12)c1ccccc1 | 33 | – | – | – |
| COc1ccc(CO)cc1-c1cc2c(N[C@H](C)c3ccccc3)ncnc2s1 | 4.7 | – | – | – |
| Cc1ccccc1-c1cc2c(N[C@H](C)c3ccccc3)ncnc2s1 | 153 | – | – | – |
| COc1cc(CO)ccc1-c1cc2c(Nc3ccccc3)ncnc2s1 | 3.1 | – | – | – |
| C[C@@H](Nc1ncnc2sc(-c3cccc(CO)c3)cc12)c1ccccc1 | 9.1 | – | – | – |
| Oc1ccccc1-c1cc2c(NCc3ccccc3)ncnc2s1 | 29 | – | – | – |
| C[C@@H](Nc1ncnc2sc(-c3ccccc3)cc12)c1ccccc1 | 59 | – | – | – |
| OC[C@@H](Nc1ncnc2sc(-c3ccccc3O)cc12)c1ccccc1 | 3.4 | – | – | – |
| COc1cc(C=O)ccc1-c1cc2c(NCc3ccccc3)ncnc2s1 | 6.3 | – | – | – |

These reach a lower IC50 (EGFR (human)). Values come first.

| IC50 (EGFR (human)) [nM] | IC50 [1] [nM] | IC50 [2] [nM] | IC50 [3] [nM] | SMILES |
| --- | --- | --- | --- | --- |
| 2.7 | – | – | – | COc1ccc(-c2cc3c(N[C@H](CO)c4ccccc4)ncnc3o2)cc1 |
| 2.6 | – | – | – | COc1ccc(C=O)cc1-c1cc2c(N[C@H](C)c3ccccc3)ncnc2s1 |
| 2.2 | 1.6 | 2.3 | – | OCc1ccc(-c2cc3c(N[C@H](CO)c4ccccc4)ncnc3s2)cc1 |
| 2.1 | – | – | – | COc1cc(C=O)ccc1-c1cc2c(NCc3ccccc3)ncnc2[nH]1 |
| 2 | – | – | – | OC[C@@H](Nc1ncnc2oc(-c3ccc(O)cc3)cc12)c1ccccc1 |
| 1.8 | – | – | – | COC[C@@H](Nc1ncnc2[nH]c(-c3ccccc3)cc12)c1ccccc1 |
| 1.6 | – | – | – | COc1c(CO)cccc1-c1cc2c(N[C@H](C)c3ccccc3)ncnc2s1 |
| 1.1 | – | – | – | COc1cccc(OC)c1-c1cc2c(N[C@H](C)c3ccccc3)ncnc2s1 |
| 1 | – | – | – | COc1cc(F)ccc1-c1cc2c(N[C@H](CO)c3ccccc3)ncnc2[nH]1 |
| 0.9 | 1 | 1.3 | – | COc1ccccc1-c1cc2c(N[C@H](CO)c3ccccc3)ncnc2s1 |
| 0.8 | 0.8 | 0.9 | – | COc1cc(C=O)ccc1-c1cc2c(N[C@H](CO)c3ccccc3)ncnc2s1 |
| 0.79 | – | – | – | COc1cccc(OC)c1-c1cc2c(N[C@H](CO)c3ccccc3)ncnc2s1 |
| 0.7 | 1 | 1.3 | 127 | OC[C@@H](Nc1ncnc2[nH]c(-c3ccccc3)cc12)c1ccccc1 |
| 0.6 | 0.6 | 0.7 | – | COc1cc(CO)ccc1-c1cc2c(N[C@H](C)c3ccccc3)ncnc2s1 |
| 0.6 | – | – | – | COc1cc(C=O)ccc1-c1cc2c(N[C@H](CO)c3ccc(F)cc3)ncnc2[nH]1 |
| 0.5 | 0.2 | 0.1 | 134 | COc1ccccc1-c1cc2c(N[C@H](CO)c3ccccc3)ncnc2[nH]1 |
| 0.5 | 0.4 | 0.8 | – | COc1cc(CO)ccc1-c1cc2c(NCc3ccccc3)ncnc2[nH]1 |
| 0.5 | – | – | – | COc1cc(C=O)ccc1-c1cc2c(N[C@H](C)c3ccccc3)ncnc2[nH]1 |
| 0.4 | 0.2 | 0.4 | 172 | OCc1ccc(-c2cc3c(N[C@H](CO)c4ccccc4)ncnc3[nH]2)cc1 |
| 0.3 | 0.3 | 0.3 | – | COc1cc(CO)ccc1-c1cc2c(N[C@H](CO)c3ccccc3)ncnc2s1 |
| 0.3 | 0.5 | 0.6 | 83 | COc1cc(CO)ccc1-c1cc2c(N[C@H](CO)c3ccc(F)cc3)ncnc2[nH]1 |
| 0.3 | – | – | – | COc1cc(C=O)ccc1-c1cc2c(N[C@H](CO)c3ccccc3)ncnc2[nH]1 |
| 0.2 | 0.2 | 0.4 | 99 | COc1cc(CO)ccc1-c1cc2c(N[C@H](C)c3ccccc3)ncnc2[nH]1 |
